Assay results published in patent US20220183294A1, “PESTICIDALLY ACTIVE AZOLE AMIDE COMPOUNDS” (SYNGENTA CROP PROTECTION AG, priority 2019, published 2022).

Experiments:
[1] = test system: Plutella xylostella (Diamond back moth); experiment: Example B5: Plutella xylostella (Diamond back moth), artificial diet, 24-well; assay type: in vivo; details: 192 h, application rate 200 ppm, eggs, 8 days after infestation, read-out: control in at least one of the two categories (mortality or growth inhibition)
Method: Example B5: Plutella xylostella (Diamond back moth)
24-well microtiter plates with artificial diet were treated with aqueous test solutions prepared from 10′000 ppm DMSO stock solutions by pipetting. After drying, Plutella eggs were pipetted through a plastic stencil onto a gel blotting paper and the plate was closed with it. The samples were assessed for mortality and growth inhibition in comparison to untreated samples 8 days after infestation.
(§1) The following compounds gave an effect of at least 80% control in at least one of the two categories (mortality or growth inhibition) at an application rate of 200 ppm: […]

[2] = test system: Spodoptera littoralis (Egyptian cotton leaf worm); experiment: Example B9: Spodoptera littoralis (Egyptian cotton leaf worm), sprayed cotton leaf discs; assay type: in vivo; details: foliar, 72 h, application rate 200 ppm, L1 larvae, 3 days after infestation, read-out: control in at least one of the three categories (mortality, anti-feedant effect, or growth inhibition)
Method: Example B9: Spodoptera littoralis (Egyptian cotton leaf worm)
Cotton leaf discs were placed onto agar in 24-well microtiter plates and sprayed with aqueous test solutions prepared from 10′000 ppm DMSO stock solutions. After drying the leaf discs were infested with five L1 larvae. The samples were assessed for mortality, anti-feeding effect, and growth inhibition in comparison to untreated samples 3 days after infestation. Control of Spodoptera littoralis by a test sample is given when at least one of the categories mortality, anti-feedant effect, and growth inhibition is higher than the untreated sample.

[3] = test system: Plutella xylostella (Diamondback Moth); experiment: Example B13: Plutella xylostella (Diamondback Moth), artificial diet, 96-well; assay type: in vivo; details: 216 h, application rate 500 ppm, eggs/L1 larvae, 9 days after infestation
Method: Example B13: Plutella xylostella (Diamondback Moth)
96-well microtiter plates containing artificial diet were treated with aqueous test solutions, prepared from 10′000 ppm DMSO stock solutions, by a liquid handling robot. After drying, eggs (-30 per well) were infested onto a netted lid which was suspended above the diet. The eggs hatch and L1 larvae move down to the diet. The samples were assessed for mortality 9 days after infestation.
The following compounds gave an effect of at least 80% mortality at an application rate of 500 ppm: […]

[4] = test system: Diabrotica balteata (Corn root worm); experiment: Example B1: Diabrotica balteata (Corn root worm), sprayed maize sprouts; assay type: in vivo; details: 96 h, application rate 200 ppm, L2 larvae, 4 days after infestation, read-out: control in at least one of the two categories (mortality or growth inhibition)
Method: Example B1: Diabrotica balteata (Corn root worm)
Maize sprouts placed onto an agar layer in 24-well microtiter plates were treated with aqueous test solutions prepared from 10′000 ppm DMSO stock solutions by spraying. After drying, the plates were infested with L2 larvae (6 to 10 per well). The samples were assessed for mortality and growth inhibition in comparison to untreated samples 4 days after infestation.
as §1

[5] = test system: Chilo suppressalis (Striped rice stemborer); experiment: Example B4: Chilo suppressalis (Striped rice stemborer), artificial diet; assay type: in vivo; details: 144 h, application rate 200 ppm, L2 larvae, 6 days after infestation, read-out: control in at least one of the three categories (mortality, anti-feedant effect, or growth inhibition)
Method: Example B4: Chilo suppressalis (Striped rice stemborer) 24-well microtiter plates with artificial diet were treated with aqueous test solutions prepared from 10′000 ppm DMSO stock solutions by pipetting. After drying, the plates were infested with L2 larvae (6-8 per well). The samples were assessed for mortality, anti-feeding effect, and growth inhibition in comparison to untreated samples 6 days after infestation. Control of Chilo suppressalis by a test sample is given when at least one of the categories mortality, anti-feedant effect, and growth inhibition is higher than the untreated sample.

[6] = test system: Euschistus heros (Neotropical Brown Stink Bug); experiment: Example B2: Euschistus heros (Neotropical Brown Stink Bug), sprayed soybean leaves; assay type: in vivo; details: 120 h, application rate 200 ppm, N2 nymphs, 5 days after infestation, read-out: effect in at least one of the two categories (mortality or growth inhibition)
Method: Example B2: Euschistus heros (Neotropical Brown Stink Bug)
Soybean leaves on agar in 24-well microtiter plates were sprayed with aqueous test solutions prepared from 10′000 ppm DMSO stock solutions. After drying the leaves were infested with N2 nymphs. The samples were assessed for mortality and growth inhibition in comparison to untreated samples 5 days after infestation.
The following compounds gave an effect of at least 80% in at least one of the two categories (mortality or growth inhibition) at an application rate of 200 ppm: […]

| melting point [°C] | SMILES | percent control (mortality or growth inhibition) at 200 ppm [1] [%] | percent control (mortality, anti-feedant effect or growth inhibition) at 200 ppm [2] [%] | mortality at 500 ppm [3] [%] | percent control (mortality or growth inhibition) at 200 ppm [4] [%] | percent control (mortality, anti-feedant effect or growth inhibition) at 200 ppm [5] [%] | percent effect (mortality or growth inhibition) at 200 ppm [6] [%] |
| --- | --- | --- | --- | --- | --- | --- | --- |
| – | CC(NC(=O)c1cc(C(F)(F)F)nc(C2(C#N)CC2)c1)c1ncnn1-c1ccc(C#N)cn1 (centres unmarked) [P3, 2-(1-cyanocyclopropyl)-N-[1-[2-(5-cyano-2-pyridyl)-1,2,4-triazol-3-yl]ethyl]-6-(trifluoromethyl)pyridine-4-carboxamide] | ≥ 80 | ≥ 80 | ≥ 80 | ≥ 80 | ≥ 80 | – |
| – | CC(NC(=O)c1cc(C(F)(F)F)cc(C(F)(F)C2CC2)c1)c1ncnn1-c1ncc(OC(F)F)cn1 (centres unmarked) [P6, 3-[cyclopropyl(difluoro)methyl]-N-[1-[2-[5-(difluoromethoxy)pyrimidin-2-yl]-1,2,4-triazol-3-yl]ethyl]-5-(trifluoromethyl) benzamide] | ≥ 80 | ≥ 80 | ≥ 80 | ≥ 80 | ≥ 80 | ≥ 80 |
| – | CC(NC(=O)c1cc(C2CC2)nc(C(F)(F)F)c1)c1ncnn1-c1ncc(OC(F)F)cn1 (centres unmarked) [P9, 2-cyclopropyl-N-[1-[2-[5-(difluoromethoxy)pyrimidin-2-yl]-1,2,4-triazol-3-yl]ethyl]-6-(trifluoromethyl) pyridine-4-carboxamide] | ≥ 80 | ≥ 80 | – | ≥ 80 | ≥ 80 | ≥ 80 |
| – | CC(NC(=O)c1cc(C2CC2C(F)(F)F)cc(C(F)(F)F)c1)c1ncnn1-c1ncc(OCC(F)F)cn1 (centres unmarked) [P12] | ≥ 80 | ≥ 80 | – | ≥ 80 | ≥ 80 | ≥ 80 |
| – | CC(NC(=O)c1cc(C2CC2)cc(C(F)(F)F)c1)c1ncnn1-c1ccc(C#N)cn1 (centres unmarked) [P14, N-[1-[2-(5-cyano-2-pyridyl)-1,2,4-triazol-3-yl]ethyl]-3-cyclopropyl-5-(trifluoromethyl)benzamide] | ≥ 80 | ≥ 80 | ≥ 80 | ≥ 80 | ≥ 80 | – |
| – | CC(NC(=O)c1cc(C2CC2)cc(C(F)(F)F)c1)c1ncnn1-c1ncc(OC(F)F)cn1 (centres unmarked) [P21, 3-cyclopropyl-N-[1-[2-[5-(difluoromethoxy)pyrimidin-2-yl]-1,2,4-triazol-3-yl]ethyl]-5-(trifluoromethyl) benzamide] | ≥ 80 | ≥ 80 | – | ≥ 80 | ≥ 80 | ≥ 80 |
| – | CC(NC(=O)c1cc(C(F)(F)F)cc(S(=O)(=O)C(F)(F)F)c1)c1ncnn1-c1ncc(OC(F)F)cn1 (centres unmarked) [P27, N-[1-[2-[5-(difluoromethoxy)pyrimidin-2-yl]-1,2,4-triazol-3-yl]ethyl]-3-(trifluoromethyl)-5-(trifluoromethylsulfonyl) benzamide] | ≥ 80 | ≥ 80 | ≥ 80 | – | ≥ 80 | – |
| – | CC(NC(=O)c1cc(C(F)(F)F)cc(S(=O)(=O)C(F)(F)F)c1)c1ncnn1-c1ccc(OC(F)F)cn1 (centres unmarked) [P28, N-[1-[2-[5-(difluoromethoxy)-2-pyridyl]-1,2,4-triazol-3-yl]ethyl]-3-(trifluoromethyl)-5-(trifluoromethylsulfonyl) benzamide] | ≥ 80 | ≥ 80 | ≥ 80 | – | ≥ 80 | – |
| – | CC(NC(=O)c1cc(C(F)(F)F)cc(S(=O)(=O)C(F)(F)F)c1)c1ncnn1-c1ncc(OCC(F)(F)F)cn1 (centres unmarked) [P29, N-[1-[2-[5-(2,2,2-trifluoroethoxy)pyrimidin-2-yl]-1,2,4-triazol-3-yl]ethyl]-3-(trifluoromethyl)-5-(trifluoromethylsulfonyl) benzamide] | ≥ 80 | – | ≥ 80 | – | ≥ 80 | – |
| 125 to 130 | CC(NC(=O)c1cc(C(F)(F)F)cc(S(=O)(=O)C(F)(F)F)c1)c1ncnn1-c1ccc(OCC(F)(F)F)cn1 (centres unmarked) [P32, N-[1-[2-[5-(2,2,2-trifluoroethoxy)-2-pyridyl]-1,2,4-triazol-3-yl]ethyl]-3-(trifluoromethyl)-5-(trifluoromethylsulfonyl) benzamide] | – | – | – | – | – | – |
| 170 to 175 | CC(NC(=O)c1cc(C(F)(F)F)nc(C2(C#N)CC2)c1)c1ncnn1-c1ccc(OCC(F)(F)F)cn1 (centres unmarked) [P33, 2-(1-cyanocyclopropyl)-N-[1-[2-[5-(2,2,2-trifluoroethoxy)-2-pyridyl]-1,2,4-triazol-3-yl]ethyl]-6-(trifluoromethyl) pyridine-4-carboxamide] | – | – | – | – | – | – |
| 70 to 75 | CC(NC(=O)c1cc(C(F)(F)F)cc(C2(C#N)CC2)c1)c1ncnn1-c1ccc(OCC(F)(F)F)cn1 (centres unmarked) [P34, 3-(1-cyanocyclopropyl)-N-[1-[2-[5-(2,2,2-trifluoroethoxy)-2-pyridyl]-1,2,4-triazol-3-yl]ethyl]-5-(trifluoromethyl) benzamide] | – | – | – | – | – | – |
| 48 to 52 | CC(NC(=O)c1cc(C(F)(F)F)cc(C(F)(F)C2CC2)c1)c1ncnn1-c1ccc(OCC(F)(F)F)cn1 (centres unmarked) [P35, 3-[cyclopropyl(difluoro)methyl]-N-[1-[2-[5-(2,2,2-trifluoroethoxy)-2-pyridyl]-1,2,4-triazol-3-yl]ethyl]-5-(trifluoromethyl) benzamide] | – | – | – | – | – | – |
| 105 to 110 | CC(NC(=O)c1cc(C(F)(F)F)cc(C(F)(F)C2CC2)c1)c1ncnn1-c1ccc(OCC(F)F)cn1 (centres unmarked) [P36, 3-[cyclopropyl(difluoro)methyl]-N-[1-[2-[5-(2,2-difluoroethoxy)-2-pyridyl]-1,2,4-triazol-3-yl]ethyl]-5-(trifluoromethyl) benzamide] | – | – | – | – | – | – |
